# According to PMC12040169 (PLOS Biology, 2025):
# Assay: in vitro
# Conditions: human, hela cells, % viability
row,SMILES,"viability at 28.5 h, 10 µM"
1,CC(C)(c1ccc(Oc2cccc(N)c2)cc1)c1ccc(Oc2cccc(N)c2)cc1 [CBK260958],109%
2,CCn1cncc1C(=O)N1CCCC1(C)C(=O)NC1CCCC1 (centres unmarked) [CBK281376],81.2%
3,Cc1c(C(=O)O)sc(S(=O)(=O)N2CCN(C(=O)CC3CCCC3)CC2)c1C(=O)O [CBK297122],101%
4,Cc1ccc(-c2ncc(OCC3CCCN3C)nc2N)c(C)c1 (centres unmarked) [CBK145137],99.2%
5,Cc1nc(C2CN(Cc3c(Cl)ccc4cccnc34)CCO2)no1 (centres unmarked) [CBK305317],82%
6,CC(=O)N1CCCN(C(=O)Cn2cnc3ccc(F)cc3c2=O)CC1 [CBK245206],106%
7,CCOc1nccnc1N1CCNCC1 [CBK001899G],93.1%
8,CS(=O)(=O)Nc1nccnc1-c1ccc2c(c1)OCO2 [CBK050934],95.1%
9,O=C(Nc1ccccc1-c1nc2ccccc2[nH]1)c1ccncc1 [CBK270148],94.5%
10,COc1cccc2c1CCN=C2C[C@H]1CN(C(=O)C2CC2)CC[C@H]1CC(=O)O [CBK289164],94.5%
11,O=C(O)CSc1nc2cc(Cl)c(Cl)cc2nc1N1CCCC1 [CBK107863],92.9%
12,Cc1c(C(=O)NCCCCn2ccnc2)oc2c(C)cccc12 [CBK283315],99.9%
13,CC(=O)N1CCCN(Cc2c(C(C)C)[nH]c3ncccc23)CC1 [CBK285333],103%
14,CC1=CCN(C(=O)c2cccc(S(=O)(=O)NCC3CCCO3)c2)CC1 (centres unmarked) [CBK304669],95.5%
15,Cc1[nH]c(=O)[nH]c(=O)c1S(=O)(=O)N1CCOCC1 [CBK261060],96.1%
16,O=C(O)c1cc(C(=O)O)c2ccccc2n1 [CBK262304],82.1%
17,Cc1ccc(S(N)(=O)=O)cc1NC(=O)c1ccc(Br)o1 [CBK003693],91.6%
18,O=C(C1CCCCC1)N1CCCC1c1n[nH]cc1-c1ccncc1 (centres unmarked) [CBK283434],87.2%
19,COc1ccccc1-c1cc(Nc2ccc(N3CCOCC3)cc2)ncn1 [CBK090933],83.7%
20,Cc1ccc(-c2ncc(OCc3ccccc3)nc2N)c(C)c1 [CBK145129],90.6%
21,CC(C)(O)C1CCCN(C(=O)c2coc(COc3cccc(F)c3)n2)C1 (centres unmarked) [CBK306977],77.4%
22,Nc1ncnc2c1ncn2[C@@H]1O[C@H](CCl)[C@H](O)C1O (some centres unmarked) [CBK201252],98.8%

row,SMILES,"viability at 28.5 h, 10 µM"
1,O=C(NC1CCCCC1)N[C@H]1CO[C@H]2[C@@H]1OC[C@@H]2n1cc(CC2CCCCC2)nn1 [CBK289510],75.2%
2,COc1cc(-c2cncc(NCC(C)(C)CO)n2)cc(OC)c1OC [CBK037854],105%
3,CCOc1ccc(CC(=O)NN2CCOCC2)cc1OCC [CBK268150],102%
4,Cc1cccc(C2(O)CCN(C(=O)c3ccc4nc(C)[nH]c4c3)CC2)c1 [CBK283299],102%
5,CSc1cc(-c2cccs2)[nH]c(=O)c1C#N [CBK006350],79.7%
6,Cc1cccn2c(CN3CC(O)C3)c(C(=O)N3CCOCC3)nc12 [CBK306857],104%
7,CCC(=O)N1CCN(c2nc3ccc(OC)cc3s2)CC1 [CBK287721],92.2%
8,O=C1CN(c2ccccc2)C(=O)N1c1ccccc1 [CBK116496],98.2%
9,FC(F)(F)c1cccnc1OCCCc1ccncc1 [CBK115782],93.9%
10,O=C(O)c1ccccc1-c1ccccc1C(=O)Nc1cccc(-c2nc3ccccc3o2)c1 [CBK262767],103%
11,O=C(CCc1cccc(F)c1)Nc1cnc(-c2ccc(F)cc2)c(-c2ccoc2)n1 [CBK037077],85.3%
12,O=C(Nc1ccc(-c2nc3ccccc3o2)c(O)c1)c1ccc(-c2ccc([N+](=O)[O-])cc2)o1 [CBK263416],108%
13,Cc1nn(C)cc1S(=O)(=O)N1CCn2cccc2C1C(C)C (centres unmarked) [CBK282787],99.8%
14,COc1ccc(CC(=O)Nc2ccc(S(N)(=O)=O)cc2)cc1OC [CBK263429],92%
15,NS(=O)(=O)c1ccc(NC(=S)N2CCN(CCc3ccccc3)CC2)cc1 [CBK268133],97.6%
16,CC1(C)[C@H]2CC/C(=N/O)[C@]1(C)NC2=O [CBK006513],84.8%
17,CC(=O)N[C@H](Cc1c[nH]c2ccccc12)C(=O)N1CCN(c2ccc(C(F)(F)F)cc2)CC1 [CBK091314],94.5%
18,CCOC(=O)C1CCCN(Cc2cc(F)cc(C(C)=O)c2O)C1 (centres unmarked) [CBK304020],87.1%
19,O=C(CN1C(=O)/C(=C/c2ccccc2)SC1=S)Nc1cccc(C(=O)O)c1 [CBK262171],86.9%
20,COc1ccc(CC(=O)N(C)Cc2nnc3ccccn23)cc1 [CBK304935],87.8%
21,CCOC(=O)c1cccc(NC(=O)CSc2nc3cccnc3[nH]2)c1 [CBK269354],95.1%
22,O=C(NCCCN1CCN(Cc2ccccc2)CC1)c1cn2cc(C(F)(F)F)cc(Cl)c2n1 [CBK074654],89.3%

row,SMILES,"viability at 28.5 h, 10 µM"
1,Cc1ccc(C(=O)NCC2COc3ccccc3O2)c(N2CCOCC2)n1 (centres unmarked) [CBK076519],106%
2,O=c1nc(CNc2ccc(Br)cc2)[nH][nH]1 [CBK288403],86.2%
3,COC(=O)c1ccccc1NC(=O)c1c(C)c(-c2ccc(C)cc2)nc2ccccc12 [CBK263641],94.9%
4,COc1ccc(-c2n[nH]c(=S)n2CC(=O)Nc2nc(-c3ccc(C)cc3C)cs2)cc1 [CBK295316],96.9%
5,CSCC[C@@H]1NC(=O)N(c2ccc(CN3CCOCC3)cc2)C1=O [CBK287954],83.2%
6,COc1ccc(CN2CCc3cc(OC)c(OC)cc3C2c2ccccc2)cc1CO (centres unmarked) [CBK286358],92.2%
7,c1nn(C2CCCCC2)cc1-c1cncn1CCCN1CCCCC1 [CBK281495],97.5%
8,Cc1c(-c2cc(C(=O)NC(C)C3CC4CCC3C4)on2)cnn1C (centres unmarked) [CBK281651],92.8%
9,O=C(Nc1ccncc1)c1c(O)n(Cc2ccccc2)c2ccccc2c1=O [CBK291222],92%
10,Oc1c(CN2CCOCC2)ccc(CN2CCOCC2)c1O [CBK269979],100%
11,Cc1ccc(C2(CN3CCN(Cc4cnn(C)c4)CC3)CC2)cc1 [CBK282480],96.3%
12,Cc1c(Cl)cccc1NC(=S)N1CCC(C(N)=O)(N2CCCCC2)CC1 [CBK264900],112%
13,Cc1ccc(-c2noc(CN3CCN(C(c4ccccc4)c4ccccc4)CC3)n2)cc1 [CBK266425],96.5%
14,O=C1CC2(CCCC2)C(=O)N1c1ccc(S(=O)(=O)NC2CCN(Cc3ccccc3)CC2)cc1Cl [CBK074650],99.8%
15,Cc1noc(C)c1Cc1ccc(C(=O)Nc2nc3ccccc3n2C)o1 [CBK299839],85.6%
16,CC(C)(C)S(=O)(=O)CC(N)=S [CBK021304],91.1%
17,OCCOc1nc2ccccc2s1 [CBK001812],97.2%
18,COc1ccc(-c2ccccc2NC(=O)c2cc(-n3cccn3)ccc2Cl)cc1 [CBK285634],91.3%
19,Cc1nc(C)n(CC2CCCN(Cc3ccccc3C#N)C2)n1 (centres unmarked) [CBK305085],98.4%
20,COc1ncc(-c2nc(NC(=O)Cc3cc(F)c(F)c(F)c3)cnc2-c2cccc(C)c2)c(OC)n1 [CBK036717],96.4%
21,Clc1ccccc1OCCNC1CCc2[nH]c3ccccc3c2C1 (centres unmarked) [CBK107790],107%
22,O=S(=O)([O-])CCC[n+]1c(/C=C/Nc2ccccc2)oc2ccc3ccccc3c21 [CBK261082],114%

row,SMILES,"viability at 28.5 h, 10 µM"
1,O=C(NC[C@H]1O[C@@H](CC(=O)N2CCN(c3ccccn3)CC2)[C@H](O)[C@@H]1O)c1ccco1 [CBK288923],102%
2,CCN1CCC2(CCC1=O)CN(Cc1noc(CC(C)C)n1)CCN2C (centres unmarked) [CBK306971],90.5%
3,NC(=S)Nn1c(CCC(=O)O)ccc1-c1ccccc1 [CBK265942],100%
4,Brc1cccc(-c2cn3ccnc3c(NC3CCOCC3)n2)c1 [CBK066291],101%
5,O=C(Nc1ccccc1C(=O)NCc1ccccc1)c1cccc(F)c1 [CBK269351],88.9%
6,CCC(Oc1nc2ccccc2nc1-c1ccccc1NC(C)=O)C(=O)c1ccccc1 (centres unmarked) [CBK267315],94.4%
7,NC1CCN(c2ncccn2)CC1 [CBK174054],98.7%
8,O=C(NC[C@H]1O[C@@H](CC(=O)N2CCCC2)[C@H](O)[C@@H]1O)c1ccccc1 [CBK288907],88.5%
9,CC1CCN(c2nc(-c3ccccc3O)nc3ccccc23)CC1 [CBK066899],109%
10,Nc1nc(Cl)c2ncn([C@H]3C[C@@H](O)[C@@H](CO)O3)c2n1 [CBK201193],100%
11,CC(=O)N1CCN(Cc2c(C3CCCC3)[nH]c3ncccc23)CC1 [CBK285339],80%
12,Cc1ccc2c(c1)OC(C)(C)CC2NS(=O)(=O)N1CCN(C)CC1 (centres unmarked) [CBK307271],103%
13,Cc1ccc(S(=O)(=O)N(CC(=O)NCC2CCCO2)c2cccc(C)c2C)cc1 (centres unmarked) [CBK265339],72.7%
14,CCn1c(CNC(=O)c2cn3ccc(C)cc3n2)nc2ccccc21 [CBK281394],91.2%
15,COc1ccc(CCCC(=O)Nc2ccccc2N2CCNCC2)cc1OC [CBK028283T],107%
16,Cc1ccc(-c2nc3ccccc3s2)cc1NC(=O)c1sc2ccccc2c1Cl [CBK263865],93.9%
17,O=C(NCCSCc1c(F)cccc1Cl)Nc1ccccc1 [CBK265340],90.2%
18,Cc1ccc(-c2nnc(C3CCCN(C(=O)C(C)C)C3)o2)s1 (centres unmarked) [CBK283058],96.9%
19,Cc1nc2nc(N)nn2c(C)c1CCC(=O)NCc1ccccc1 [CBK304986],95.7%
20,O=C(Nc1sc2c(c1C(=O)NCc1ccco1)CCCC2)c1sc2ccccc2c1Cl [CBK265086],92.1%
21,COc1ccccc1C1(O)CC2CCC(C1)N2 (centres unmarked) [CBK281369],81.9%
22,CC(C)(C)c1ccc(-c2nnc(SCC(=O)c3ccc(F)cc3)o2)cc1 [CBK067988],102%

# Same assay, conditions: human, hela cells, % viability, bulk resorufin, single well
row,SMILES,"viability at 28.5 h, 10 µM"
1,O=C1NC(=O)N(c2ccc(O)cc2)C(=O)/C1=C/c1cc(Cl)c(OCc2ccccc2)c(Cl)c1 [CBK265385],78.1%
